In BindingDB's records for doi:10.1021/acs.jmedchem.8b01153 (2019):

Legend:
[1] = molecular target: T1, Induced myeloid leukemia cell differentiation protein Mcl-1 (Homo sapiens, UniProt Q07820); experiment: Binding affinity to MCl-1 (unknown origin) assessed as dissociation rate constant for state one
[2] = molecular target: T1, Induced myeloid leukemia cell differentiation protein Mcl-1; experiment: Binding affinity to MCl-1 (unknown origin) assessed as dissociation rate constant for state two

T1 sequence (Q07820 whole entry): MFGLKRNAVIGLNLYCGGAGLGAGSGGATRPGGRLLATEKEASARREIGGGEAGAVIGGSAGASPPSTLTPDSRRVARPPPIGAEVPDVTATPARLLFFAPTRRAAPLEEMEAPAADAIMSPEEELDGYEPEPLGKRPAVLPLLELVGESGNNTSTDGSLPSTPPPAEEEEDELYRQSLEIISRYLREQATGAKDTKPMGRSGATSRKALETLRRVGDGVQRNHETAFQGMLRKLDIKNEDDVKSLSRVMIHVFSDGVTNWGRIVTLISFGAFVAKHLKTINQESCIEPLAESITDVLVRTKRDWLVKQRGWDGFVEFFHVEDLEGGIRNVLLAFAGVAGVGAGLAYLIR

SMILES	koff [1] [s⁻¹]	koff [2] [s⁻¹]
Cc1c(-c2cccc3c(CCCOc4cccc5ccccc45)c(C(=O)O)[nH]c23)c(COc2ccc(B(O)O)c(C=O)c2)nn1C [7-(3-((4-Borono-3-formylphenoxy)methyl)-1,5-dimethyl-1Hpyrazol-4-yl)-3-(3-(naphthalen-1-yloxy)propyl)-1H-indole-2-carboxylic acid, 5]	0.14	0.018
Cc1c(-c2cccc3c(CCCOc4cccc5ccccc45)c(C(=O)O)n(C)c23)c(COc2ccc(B(O)O)c(C=O)c2)nn1C [7-(3-((4-Borono-3-formylphenoxy)methyl)-1,5-dimethyl-1Hpyrazol-4-yl)-1-methyl-3-(3-(naphthalen-1-yloxy)propyl)-1H-indole-2-carboxylic acid, 11]	0.13	0.01
